The text below walks through data of PubChem BioAssay (NCI).

Some test systems named below: NCI-H226 lung; SF-295 CNS; NCI-H23 lung; UACC-257 melanoma; NCI-H460 lung; SF-539 CNS; HOP-92 NSCLC; HCT-116 colon; UACC-62 melanoma.
Assay in all cases: NCI anticancer screen, dose series, 48 h

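Cells were grown in 96-well plates and exposed to each compound for 48 hours at five concentrations; endpoints were interpolated linearly between bracketing concentrations, or set to the highest concentration if not reached. At the GI50, growth is halved. TGI is the concentration that stops growth completely.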 Some results are limits rather than exact numbers.

On to `COc1cnnc2c(C)c(-c3ccccc3)nn12`, for which the TGI with NCI-H226 lung, in the assay with SF-295 CNS, in the assay on NCI-H23 lung, in the assay with UACC-257 melanoma, in the assay on NCI-H460 lung and in the assay with SF-539 CNS was above 100 µM throughout. Moreover, the TGI in the assay with HOP-92 NSCLC, in the assay on HCT-116 colon and in the assay with UACC-62 melanoma was above 100 µM each time.

As to `O=C1OC(C(O)C(O)C(O)CO)C(O)C1O` (stereo not given), the TGI in the assay on NCI-H226 lung, with SF-295 CNS, in the assay on NCI-H23 lung, in the assay with UACC-257 melanoma, in the assay with NCI-H460 lung and in the assay on SF-539 CNS was above 100 µM throughout. Moreover, the TGI with HOP-92 NSCLC, in the assay on HCT-116 colon and in the assay on UACC-62 melanoma was above 100 µM throughout.

As to `CC(C)(C)OC(=O)NCCNC(=O)CN(CC(=O)O)C1CCCCC1N(CC(=O)O)CC(=O)O` (stereo not given), the TGI in the assay with NCI-H226 lung, in the assay with SF-295 CNS, in the assay with NCI-H23 lung, in the assay on UACC-257 melanoma, in the assay on NCI-H460 lung and with SF-539 CNS was above 100 µM each time. The TGI in the assay with HOP-92 NSCLC, in the assay on HCT-116 colon and in the assay with UACC-62 melanoma was above 100 µM throughout.

On to `COC1CCC(n2c([C@@H]3CCCC(=O)N3c3ccc(F)c(F)c3)nc3cc(-c4c(C)noc4C)ccc32)CC1` (stereo not given in full), for which the GI50 in the assay on NCI-H226 lung was 4.31 µM; with SF-295 CNS, 6.72 µM; in the assay on NCI-H23 lung it was 13.3 µM; in the assay with UACC-257 melanoma, 2.54 µM; in the assay on NCI-H460 lung, 26.3 µM; in the assay with SF-539 CNS it was 9.79 µM. The values for the GI50 in the assay on HOP-92 NSCLC, with HCT-116 colon and in the assay with UACC-62 melanoma were 2.04 µM, 10 µM and 2.52 µM, respectively. Also, the TGI in the assay on NCI-H226 lung is 19.7 µM; in the assay on SF-295 CNS it was 29 µM; in the assay on NCI-H23 lung it was 40.5 µM; with UACC-257 melanoma, above 100 µM; in the assay on NCI-H460 lung it was above 100 µM; in the assay on SF-539 CNS it was 23 µM. For the same molecule, the TGI is 14.2 µM in the assay with HOP-92 NSCLC, 22.4 µM in the assay on HCT-116 colon and 16.1 µM in the assay on UACC-62 melanoma.

Take `Cc1nn(C(=O)c2ccc(Cl)cc2)c2c1C(c1ccco1)SC(N)=N2` (stereo not given): the TGI in the assay on NCI-H226 lung, with SF-295 CNS, in the assay with NCI-H23 lung, in the assay on UACC-257 melanoma, with NCI-H460 lung and in the assay on SF-539 CNS was above 10 µM throughout. In addition, the TGI with HOP-92 NSCLC, in the assay on HCT-116 colon and in the assay on UACC-62 melanoma was above 10 µM in each case.

Regarding `O=C1C=C(NCCc2cc(Br)c(O)c(Br)c2)C(=O)c2[nH]cnc21`, the TGI with NCI-H226 lung is above 100 µM; in the assay on SF-295 CNS, above 100 µM; in the assay on NCI-H23 lung, 50.8 µM; in the assay with UACC-257 melanoma, 44.4 µM; in the assay on NCI-H460 lung, above 100 µM; with SF-539 CNS, above 100 µM. Besides, the results for the TGI with HOP-92 NSCLC, with HCT-116 colon and with UACC-62 melanoma were 82.3 µM, 43.9 µM and 40 µM, respectively.

In the case of `CCOC(=O)c1ccc(NC(NC(=O)CC)(C(F)(F)F)C(F)(F)F)cc1`, the TGI in the assay with NCI-H226 lung, in the assay with SF-295 CNS, in the assay with NCI-H23 lung, with UACC-257 melanoma, with NCI-H460 lung and in the assay on SF-539 CNS was above 100 µM each time. Further, the TGI in the assay on HOP-92 NSCLC, with HCT-116 colon and in the assay on UACC-62 melanoma was above 100 µM in each case.

For the molecule `CC(C)C(/C=C/c1ccccc1)=N\NC(=S)NN`, the TGI in the assay on NCI-H226 lung, with SF-295 CNS, in the assay on NCI-H23 lung, with UACC-257 melanoma, in the assay with NCI-H460 lung and in the assay on SF-539 CNS was above 100 µM throughout. Besides, the TGI in the assay on HOP-92 NSCLC, in the assay on HCT-116 colon and with UACC-62 melanoma was above 100 µM throughout.

With `Cc1ccc(Nc2nc(NS(=O)(=O)c3cc(C)c(Cl)cc3S)n[nH]2)cc1`, the TGI in the assay with NCI-H226 lung, with SF-295 CNS, in the assay with NCI-H23 lung, in the assay on UACC-257 melanoma, in the assay with NCI-H460 lung and with SF-539 CNS was above 100 µM each time. Further, the TGI in the assay on HOP-92 NSCLC, in the assay on HCT-116 colon and in the assay with UACC-62 melanoma was above 100 µM in each case.

On to `Cc1ccnc2sc3ccccc3c(=O)c12`, for which the TGI in the assay with NCI-H226 lung, in the assay with SF-295 CNS, in the assay with NCI-H23 lung, with UACC-257 melanoma, in the assay on NCI-H460 lung and in the assay with SF-539 CNS was above 100 µM in each case. The TGI in the assay with HOP-92 NSCLC is above 100 µM; in the assay with HCT-116 colon, above 100 µM; with UACC-62 melanoma, 63 µM.

On to `OCCNc1nc2c(N3CCCC3)nc(N3CCNCC3)nc2nc1NCc1ccccc1`, for which the TGI with NCI-H226 lung was 35.2 µM; in the assay with SF-295 CNS it was 32.7 µM; in the assay with NCI-H23 lung, 34.2 µM; in the assay on UACC-257 melanoma it was 33.5 µM; with NCI-H460 lung, 29.9 µM; in the assay on SF-539 CNS it was 32 µM. Further, the TGI in the assay on HOP-92 NSCLC amounted to 21.8 µM; in the assay on HCT-116 colon, 21.9 µM; in the assay on UACC-62 melanoma, 31.3 µM.

`CN1N(c2ccccc2)C(=O)C2=NC=C(C#N)C(=N)C21C` (stereo not given): the TGI in the assay on NCI-H226 lung, in the assay with SF-295 CNS, in the assay with NCI-H23 lung, in the assay on UACC-257 melanoma, in the assay with NCI-H460 lung and with SF-539 CNS was above 100 µM throughout. The TGI in the assay with HOP-92 NSCLC, with HCT-116 colon and in the assay with UACC-62 melanoma was above 100 µM throughout.

As for `CC(CC(C)(C)[N+](C)(C)C)[N+](C)(C)C` (stereo not given), the TGI with NCI-H226 lung, in the assay with SF-295 CNS, with NCI-H23 lung, in the assay on UACC-257 melanoma, in the assay with NCI-H460 lung and in the assay on SF-539 CNS was above 100 µM each time. Further, the TGI with HOP-92 NSCLC, in the assay with HCT-116 colon and in the assay with UACC-62 melanoma was above 100 µM throughout.

As to `CCOC(=O)/C=C1/Nc2cc(F)c(F)cc2NC1=O`, the TGI in the assay with NCI-H226 lung, in the assay with SF-295 CNS, in the assay with NCI-H23 lung, in the assay with UACC-257 melanoma, in the assay on NCI-H460 lung and in the assay with SF-539 CNS was above 100 µM each time. In addition, the TGI in the assay with HOP-92 NSCLC, in the assay on HCT-116 colon and with UACC-62 melanoma was above 100 µM each time.
